Measurements published in PubChem BioAssay (NCI).
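Briefly, cells in 96-well plates were exposed to five compound concentrations for 48 h, and endpoints were estimated by linear interpolation. Here, GI50 denotes the concentration required for 50% inhibition of growth. At the TGI there is no net growth.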

Key:
Test in all cases: inhibition of tumour cell growth, NCI panel, 48 h
A498 renal = test system: A498 renal
CCRF-CEM leukemia = test system: CCRF-CEM leukemia
COLO 205 colon = test system: COLO 205 colon
M14 melanoma = test system: M14 melanoma
MDA-MB-231 breast = test system: MDA-MB-231 breast
NCI-H522 lung = test system: NCI-H522 lung
OVCAR-5 ovarian = test system: OVCAR-5 ovarian
OVCAR-8 ovarian = test system: OVCAR-8 ovarian
SK-MEL-28 melanoma = test system: SK-MEL-28 melanoma
T-47D breast = test system: T-47D breast

Row | SMILES | GI50 (A498 renal) [µM] | TGI (A498 renal) [µM] | GI50 (CCRF-CEM leukemia) [µM] | TGI (CCRF-CEM leukemia) [µM] | GI50 (COLO 205 colon) [µM] | TGI (COLO 205 colon) [µM] | GI50 (M14 melanoma) [µM] | TGI (M14 melanoma) [µM] | GI50 (MDA-MB-231 breast) [µM] | TGI (MDA-MB-231 breast) [µM] | GI50 (NCI-H522 lung) [µM] | TGI (NCI-H522 lung) [µM] | GI50 (OVCAR-5 ovarian) [µM] | TGI (OVCAR-5 ovarian) [µM] | GI50 (OVCAR-8 ovarian) [µM] | TGI (OVCAR-8 ovarian) [µM] | GI50 (SK-MEL-28 melanoma) [µM] | TGI (SK-MEL-28 melanoma) [µM] | GI50 (T-47D breast) [µM] | TGI (T-47D breast) [µM]
1 | C#C[C@]1(O)CC[C@H]2[C@@H]3CC=C4c5nc(Nc6ccccn6)sc5CC[C@]4(C)[C@H]3CC[C@@]21C | 0.26 | 1.19 | 0.482 | 4.18 | 1.81 | 4.05 | 1.14 | 3.21 | 1 | 3.11 | 1.86 | 4.12 | 1.65 | 4.44 | 1.77 | 7.89 | 0.279 | 1.01 | 1.81 | 5.98
2 | CCN(c1ccc(CO)c(Cl)c1)C(C)c1ccc(F)cc1 (centres undefined) | 0.117 | 0.843 | 18 | 41.2 | 18.9 | 35.5 | 17.6 | 33.8 | 15.3 | 30.1 | 12.7 | 26.7 | 2.97 | 11.9 | 14.1 | 30.2 | 16.1 | 30.6 | 4.22 | 18.2
3 | CC(C)c1ccc2nc3ccc(C(=O)NCCN(C)C)cn3c(=O)c2c1 |  | 30.8 |  | 32.1 |  | 33.8 |  | 28.3 |  | 34.6 |  | 29.3 |  | 33.2 |  | 39.9 |  | 32.4 |  | 38.4
4 | CNC(=O)Nc1ccc(-c2nc(N3CCOCC3)nc3c2cnn3C2CCOCC2)cc1 | < 0.0218 | 0.148 | 0.276 | > 100 | 0.247 | > 100 | 0.233 |  | 0.292 | > 51.9 | 0.43 | > 100 | 0.194 | 1.36 | 0.247 | 6.47 | 0.164 | 2.22 | 0.0419 | 0.341
5 | CC1(C)CCC(C)(C)c2cc(C(=O)Nc3ccc(C(=O)O)cc3)ccc21 |  | > 100 |  | > 80.8 |  | 36 |  | 51.1 |  | > 95.2 |  | 70.6 |  | > 100 |  | > 88.5 |  | > 90.8 |  | > 79.4
6 | COC1/C=C/OC2(C)Oc3c(C)c(O)c4c(c3C2=O)C(=O)C=C(NC(=O)/C(C)=C\C=C\C(C)C(OC=O)C(C)C(O)C(C)C(OC(C)=O)C1C)C4=O (centres undefined) |  | 41.3 |  | 6.4 |  | 18 |  | 19.5 |  | > 48.5 |  | 6.33 |  | 36.4 |  | 33.5 |  | 15 |  | 11.6
7 | COc1cc(-c2oc3ccccc3c(=O)c2O)cc(OC)c1OC |  | > 100 |  | > 30.5 |  | > 100 |  | > 100 |  | > 100 |  | > 80.3 |  | > 100 |  | > 100 |  | > 100 |  | > 100
8 | COc1ccc(Cl)cc1Nc1nc(C(F)(F)F)ccc1C(=O)NN | 1.51 | 63 | 0.319 | 2.86 | 7.76 | > 100 | 2.38 | 13 | 4.58 | > 100 | 4.09 | > 100 | 3.81 | > 100 | 3.43 | > 100 | 3.38 | > 100 | 5.06 | > 100
9 | COc1ccc(-c2cc(-c3ccc(Cl)cc3)c(C#N)c(=O)n2CCCCC(=O)Nc2ccccc2N)cc1 | 1.79 | 48.9 | 4.87 | > 100 | 4.04 | > 100 | 2.58 | 8.14 | 7.86 | > 100 | 7.04 | 57.1 | 10.8 | > 100 | 4.7 | > 100 | 9.13 | > 100 | 4.44 | > 100
10 | COc1ccc2nc(-c3ccccc3)cc(Nc3cccc(/C(C)=N\O)c3)c2c1 | 11.8 | 37.3 | 58.7 | > 100 | 21.4 | > 100 | 5.04 | > 100 | 2.54 | 7.62 | 73.9 | > 100 | 33.7 | > 100 | 3 | > 100 | 57.7 | > 100 | 4.01 | > 100
11 | CSc1ccc(C2=Nn3c(nnc3-c3ccc(F)c(Cl)c3)SC2)cc1 | 10 | 30.2 | 11.1 | > 100 | 25.9 | > 100 | 6.73 | 28.4 | 4.12 | 21 | 4.38 | 21.4 | 39.5 | > 100 | 22.2 | > 100 | 34.2 | > 100 | 71 | > 100
12 | COc1cc(-c2csc(NC(=O)c3cc(C(F)(F)F)cc(C(F)(F)F)c3)n2)cc(OC)c1OC | 2.63 | > 100 | 2.83 | > 100 | 2.63 | 7.29 | 2.91 | > 100 | 2.72 | > 100 | 1.4 | 5.05 | 3.94 | > 100 | 2.77 | > 100 | 2.77 | > 100 | 1.84 | 6.29
13 | COC(=O)C1=C(OC(=O)c2ccc(Cl)cc2)C(C(=O)OC)[C@@]2(O)[C@@H](C(=O)OC)C(c3ccccc3C(F)(F)F)C[C@@H]1[C@@H]2C(=O)OC (some centres undefined) | 1.76 | 7.25 | 3.54 | 31.2 | 3.31 | > 100 | 3.16 | 13 | 2.07 | 6.19 | 16.4 | 43.6 | 54.2 | > 100 | 2.72 | 9.87 | 6.69 | > 100 | 4.82 | > 100
